TGI and GI50 data for three compounds are collected here from PubChem BioAssay (NCI).

Some test systems named below: HCT-116 colon; UACC-62 melanoma; EKVX NSCLC; NCI-H522 lung; LXFL 529 NSCLC; COLO 205 colon; NCI-H460 lung; MOLT-4 leukemia; UO-31 renal; RPMI-8226 leukemia; SK-OV-3 ovarian; TK-10 renal.
What all share (test): growth of human tumour cells (NCI), 48 h

Each structure is given as a SMILES string.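 Method: 48-hour compound exposure of cells in 96-well plates, five concentrations, linear interpolation of endpoints. GI50: concentration for 50% inhibition of growth. The concentration for full growth arrest is given as TGI.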

With `O=C(NN1C(=O)C(Cl)C1c1ccc([N+](=O)[O-])cc1)c1ccccc1O` (stereo not drawn), the TGI in the assay on HCT-116 colon, in the assay with UACC-62 melanoma, with EKVX NSCLC, in the assay on NCI-H522 lung, in the assay on LXFL 529 NSCLC and in the assay with COLO 205 colon was over 100 µM throughout. For the same compound, the TGI in the assay with NCI-H460 lung, in the assay with MOLT-4 leukemia, in the assay with UO-31 renal, in the assay on RPMI-8226 leukemia, in the assay with SK-OV-3 ovarian and in the assay with TK-10 renal was over 100 µM throughout.

Take `Cn1nc2ccc3nccc(NCCNCCCl)c3c2n1`: the TGI in the assay with HCT-116 colon, in the assay with UACC-62 melanoma, in the assay on EKVX NSCLC, with NCI-H522 lung, in the assay with LXFL 529 NSCLC and in the assay on COLO 205 colon was over 100 µM in each case. The TGI in the assay with NCI-H460 lung, with MOLT-4 leukemia, with UO-31 renal, in the assay with RPMI-8226 leukemia, in the assay on SK-OV-3 ovarian and with TK-10 renal was over 100 µM throughout.

For `CN(C)S(=O)(=O)c1cccc(-c2nc3sc4c(c3c(=O)[nH]2)CCCC4)c1`, the GI50 is over 100 µM in the assay with UACC-62 melanoma; over 100 µM in the assay with EKVX NSCLC; over 100 µM in the assay on NCI-H522 lung; over 100 µM in the assay on COLO 205 colon; 0.931 µM with NCI-H460 lung; over 100 µM in the assay on MOLT-4 leukemia. In addition, the GI50 in the assay on RPMI-8226 leukemia was over 100 µM. The TGI with UACC-62 melanoma, with EKVX NSCLC, with NCI-H522 lung, in the assay with COLO 205 colon, with NCI-H460 lung and with MOLT-4 leukemia was over 100 µM each time. In the assay with RPMI-8226 leukemia, the TGI is over 100 µM.
